target: T1, human ETA receptor (Homo sapiens, UniProt P25101); assay: ETA receptor binding assay with FIDA analysis; details: 1 μM non-labelled ligand; 2 nM TAMRA-labeled endothelin-1; membrane vesicles from CHO cells or VLPs from Sf9 cells; 30 minutes at room temperature
T1 construct: Flag; made in house; host or cells: Sf9 insect cells co-infected with recombinant baculoviruses; VLPs pelleted from the culture supernatant
T1 sequence (P25101 21-427): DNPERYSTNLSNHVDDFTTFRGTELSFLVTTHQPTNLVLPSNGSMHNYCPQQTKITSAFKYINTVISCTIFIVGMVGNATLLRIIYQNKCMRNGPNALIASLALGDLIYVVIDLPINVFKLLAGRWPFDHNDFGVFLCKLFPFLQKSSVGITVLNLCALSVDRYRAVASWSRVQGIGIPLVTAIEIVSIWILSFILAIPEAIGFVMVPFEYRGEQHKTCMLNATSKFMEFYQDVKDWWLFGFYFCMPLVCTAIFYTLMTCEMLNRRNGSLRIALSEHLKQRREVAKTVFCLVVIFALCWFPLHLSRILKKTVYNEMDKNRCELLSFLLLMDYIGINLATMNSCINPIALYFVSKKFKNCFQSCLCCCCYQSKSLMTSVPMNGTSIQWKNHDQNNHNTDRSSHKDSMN
Protocol: After 30 minutes incubation at room temperature the mixture was analysed by FIDA using a beam scanner and 543 nm laser light for excitation.

Compound | competition with TAMRA-labeled endothelin-1 for binding to the ETA receptor
C[C@H](N)C(=O)NCC(=O)N[C@H]1CSSC[C@@H](C(=O)O)NC(=O)[C@H](CO)NC(=O)[C@H]([C@@H](C)O)NC(=O)[C@H](Cc2ccccc2)NC(=O)[C@H]([C@@H](C)O)NC(=O)[C@H](CCCCN)NC(=O)[C@H](Cc2c[nH]c3ccccc23)NC(=O)[C@H](Cc2ccccc2)NC(=O)[C@H](Cc2ccccc2)NC(=O)[C@H](CC(N)=O)NC(=O)[C@H](CCCCN)NC1=O [somatostatin-14] | non-competing ligand
big endothelin-1 | non-competing ligand
endothelin-1 | competing ligand

From patent publication US7476517B2, “Virus like particles, their preparation and their use preferably in pharmaceutical screening and functional genomics” (Evotec AG, priority 1999, dated 2009)
